Reference: patent publication US8053581B2, “Trisubstituted thiazole compounds, preparations methods, pharmaceutical compositions and medicals uses thereof” (Institute of Pharmacology and Toxicology Academy of …, priority 2006, dated 2011)

Experiments:
[1] = target: T1, PLTP (Homo sapiens, UniProt P55058); test: Determination of PLTP inhibition activity (radiolabelled phospholipid liposome to HDL transfer with plasma); format: biochemical; conditions: for inhibition at 150 µM: Concentration of compounds 150 μM; for inhibition at 150 µM / inhibition at 250 µM: read-out: PLTP inhibition activity Inhibition rate(%); for inhibition at 250 µM: Concentration of compounds 250 μM
T1 construct: from tissue
T1 sequence (P55058 18-493, species assumed): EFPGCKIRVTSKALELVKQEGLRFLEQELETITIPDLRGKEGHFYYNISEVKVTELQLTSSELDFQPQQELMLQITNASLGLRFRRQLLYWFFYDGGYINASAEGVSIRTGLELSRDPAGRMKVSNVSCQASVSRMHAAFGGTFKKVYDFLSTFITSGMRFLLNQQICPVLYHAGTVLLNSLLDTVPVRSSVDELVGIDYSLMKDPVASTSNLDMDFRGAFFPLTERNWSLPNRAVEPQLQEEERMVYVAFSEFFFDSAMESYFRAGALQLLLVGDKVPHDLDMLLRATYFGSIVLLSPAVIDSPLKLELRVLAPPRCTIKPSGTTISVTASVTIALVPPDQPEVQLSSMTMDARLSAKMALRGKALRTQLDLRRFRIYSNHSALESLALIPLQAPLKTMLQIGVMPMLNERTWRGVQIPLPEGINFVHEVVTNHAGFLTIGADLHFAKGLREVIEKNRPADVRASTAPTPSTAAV
Description: 30 μl (about 1000 cpm/μl) phospholipids liposome, 30 μl HDL ([…]), 337 μl TSE and 3 μl plasma were mixed, incubated in 37° C. water-bath for 1 hour, and then added 300 μl of a settling solution (50 ml solution preparation: 5.36 ml 5N NaCl, 9.075 ml 2M MnCl2 and 46 mg liver phospholipid were mixed, added water to 50 ml), the solution was stood at room temperature for 10 minutes, rotated at high speed for 10 minutes (to remove phospholipids liposome), 500 μl of the supernatant was sampled and counted. PLTP activity (cpm/h/3 μl)=sample cpm-background cpm.

[2] = target: T2, CETP (Homo sapiens, UniProt P11597); test: Determination of CETP inhibition activity (fluorescent donor/acceptor transfer); format: biochemical; conditions: Concentration of compounds 500 μM; read-out: CETP inhibition activity Inhibition rate(%)
T2 sequence (P11597 18-493): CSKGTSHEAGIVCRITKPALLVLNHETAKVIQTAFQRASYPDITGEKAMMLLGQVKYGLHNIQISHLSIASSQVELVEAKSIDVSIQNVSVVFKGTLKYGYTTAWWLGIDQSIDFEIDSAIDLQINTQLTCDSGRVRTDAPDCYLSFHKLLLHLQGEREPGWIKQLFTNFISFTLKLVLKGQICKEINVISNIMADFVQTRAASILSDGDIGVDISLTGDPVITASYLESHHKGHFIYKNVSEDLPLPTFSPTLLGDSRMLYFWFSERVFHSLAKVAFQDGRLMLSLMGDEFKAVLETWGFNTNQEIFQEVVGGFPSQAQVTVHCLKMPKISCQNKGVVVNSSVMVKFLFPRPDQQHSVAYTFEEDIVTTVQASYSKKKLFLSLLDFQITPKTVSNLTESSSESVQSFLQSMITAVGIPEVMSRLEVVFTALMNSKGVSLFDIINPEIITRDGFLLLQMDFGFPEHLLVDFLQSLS
Description: A mixture containing 3 μl of a donor, 9 μl of an acceptor (250 μg protein), 3 μl of CETP solution and 85 μl of an analytic buffer, 10 mM Tris, 0.15 M NaCl and 2 mM EDTA, pH 7.4 was incubated at 37° C. for 0.5 hours, the fluorescence intensity was determined on Victor 3 double illuminometer/fluorescence counter (Perkin Elmer) carrying […] light wave length.

SMILES: O=C(Nc1nc(-c2ccc(O)cc2)c(Cc2ccccc2)s1)c1ccc(Cl)cc1 [Example 8, N-[5-benzyl-4-(4-hydroxy-phenyl)-thiazol-2-yl]-4-chloro-benzamide]
- inhibition at 150 µM [1]: 0%
- inhibition at 500 µM [2]: 80.4%
- melting point: 109 to 110 °C

SMILES: O=C(Nc1nc(-c2ccc(O)cc2)c(Cc2ccccc2)s1)c1ccc(O)c(O)c1 [Example 19, N-[5-benzyl-4-(4-hydroxy-phenyl)-thiazol-2-yl]-3,4-dihydroxy-benzamide]
- IC50 [1]: 70 µM
- inhibition at 250 µM [1]: 79.8%
- inhibition at 500 µM [2]: 19.4%
- melting point: 240 to 241 °C

SMILES: COc1ccc(-c2nc(N)sc2Cc2ccc(F)cc2)cc1 [Example 21, 5-(4-fluoro-benzyl)-4-(4-methoxy-phenyl)-thiazol-2-ylamine]
- inhibition at 250 µM [1]: 11.5%
- inhibition at 500 µM [2]: 52.8%
- melting point: 199 to 201 °C

SMILES: O=C(Nc1nc(-c2ccc(F)cc2)c(Cc2ccc([N+](=O)[O-])cc2)s1)c1ccc(O)c(O)c1 [Example 31, N-[4-(4-fluoro-phenyl)-5-(4-nitro-benzyl)-thiazol-2-yl]-3,4-dihydroxy-benzamide]
- IC50 [1]: 75 µM
- inhibition at 250 µM [1]: 100%
- inhibition at 500 µM [2]: 0%
- melting point: 276 to 278 °C

SMILES: O=C(Nc1nc(-c2ccccc2)c(Cc2ccc([N+](=O)[O-])cc2)s1)c1ccc(O)c(O)c1 [Example 32, 3,4-dihydroxy-N-[5-(4-nitro-benzyl)-4-phenyl-thiazol-2-yl]-benzamide]
- IC50 [1]: 75 µM
- inhibition at 250 µM [1]: 100%
- inhibition at 500 µM [2]: 0%

SMILES: O=C(Nc1nc(-c2ccc(O)cc2)c(Cc2ccc(F)cc2)s1)c1ccc(O)c(O)c1 [Example 33, N-[5-(4-fluoro-benzyl)-4-(4-hydroxy-phenyl)-thiazol-2-yl]-3,4-dihydroxy-benzamide]
- IC50 [1]: 100 µM
- inhibition at 250 µM [1]: 73.2%
- inhibition at 500 µM [2]: 9.2%
- melting point: 154 to 155 °C

SMILES: O=C(Nc1nc(-c2ccc(O)cc2)c(Cc2ccc([N+](=O)[O-])cc2)s1)c1ccc(O)c(O)c1 [Example 34, 3,4-dihydroxy-N-[4-(4-hydroxy-phenyl)-5-(4-nitro-benzyl)-thiazol-2-yl]-benzamide]
- IC50 [1]: 100 µM
- inhibition at 250 µM [1]: 67.6%
- inhibition at 500 µM [2]: 30.4%
- melting point: 195 to 196 °C

SMILES: O=C(Nc1nc(-c2ccc(O)cc2)c(Cc2ccccc2)s1)c1ccc(O)cc1O [Example 38, N-[5-benzyl-4-(4-hydroxy-phenyl)-thiazol-2-yl]-2,4-dihydroxy-benzamide]
- inhibition at 150 µM [1]: 11.5%
- inhibition at 500 µM [2]: 88%
- melting point: 217 to 219 °C

SMILES: O=C(Nc1nc(-c2ccc(O)cc2)c(Cc2ccccc2)s1)c1ccccc1O [Example 39, N-[5-benzyl-4-(4-hydroxy-phenyl)-thiazol-2-yl]-2-hydroxy-benzamide]
- melting point: 279 to 280 °C

SMILES: COc1ccc(C(=O)Nc2nc(-c3ccc(O)cc3)c(Cc3ccccc3)s2)cc1 [Example 40, N-[5-benzyl-4-(4-hydroxy-phenyl)-thiazol-2-yl]-4-methoxy-benzamide]
- inhibition at 150 µM [1]: 0%
- inhibition at 500 µM [2]: 71.6%
- melting point: 124 to 125 °C

SMILES: O=C(Nc1nc(-c2ccc(O)cc2)c(Cc2ccccc2)s1)c1cc(O)c(O)c(O)c1 [Example 41, N-[5-benzyl-4-(4-hydroxy-phenyl)-thiazol-2-yl]-3,4,5-trihydroxy-benzamide]
- IC50 [1]: 15 µM
- inhibition at 150 µM [1]: 89.4%
- inhibition at 500 µM [2]: 44.1%
- melting point: 245 to 246 °C

SMILES: COc1ccc(-c2nc(NC(=O)c3cccc(OC)c3)sc2Cc2ccccc2)cc1 [Example 42, N-[5-benzyl-4-(4-methoxy-phenyl)-thiazol-2-yl]-3-methoxy-benzamide]
- melting point: 71 to 72 °C

SMILES: COc1ccc(-c2nc(NC(=O)c3cc(OC)cc(OC)c3)sc2Cc2ccccc2)cc1 [Example 43, N-[5-benzyl-4-(4-methoxy-phenyl)-thiazol-2-yl]-3,5-dimethoxy-benzamide]
- melting point: 152 to 153 °C

SMILES: O=C(Nc1nc(-c2ccc(O)cc2)c(Cc2ccccc2)s1)c1cccc(O)c1 [Example 44, N-[5-benzyl-4-(4-hydroxy-phenyl)-thiazol-2-yl]-3-hydroxy-benzamide]
- melting point: 233 to 234 °C

SMILES: O=C(Nc1nc(-c2ccc(O)cc2)c(Cc2ccccc2)s1)c1cc(O)cc(O)c1 [Example 45, N-[5-benzyl-4-(4-hydroxy-phenyl)-thiazol-2-yl]-3,5-dihydroxy-benzamide]
- melting point: 262 to 263 °C

SMILES: O=C(Nc1nc(-c2ccc(O)cc2)c(Cc2ccccc2)s1)c1ccc(O)cc1 [Example 46, N-[5-benzyl-4-(4-hydroxy-phenyl)-thiazol-2-yl]-4-hydroxy-benzamide]
- melting point: 254 to 255 °C

SMILES: COc1ccc(-c2nc(NC(=O)c3ccc(OC)c(OC)c3)sc2CC2CCCCC2)cc1 [Example 48, N-[5-cyclohexylmethyl-4-(4-methoxy-phenyl)-thiazol-2-yl]-3,4-dimethoxy-benzamide]
- melting point: 171 to 172 °C

SMILES: COc1ccc(-c2nc(NC(=O)c3cc(OC)c(OC)c(OC)c3)sc2CC2CCCCC2)cc1 [Example 50]
- melting point: 193 to 194 °C

SMILES: COc1ccc(-c2nc(N)sc2C)cc1 [Example 52, 4-(4-methoxy-phenyl)-5-methyl-thiazol-2-ylamine]
- melting point: 139 to 140 °C

SMILES: COc1ccc(-c2nc(NC(=O)c3cc(OC)c(OC)c(OC)c3)sc2C)cc1 [Example 53, 3,4,5-trimethoxy-N-[4-(4-methoxy-phenyl)-5-methyl-thiazol-2-yl]-benzamide]
- melting point: 105 to 106 °C

SMILES: COc1ccc(-c2nc(NC(=O)c3ccc(OC)c(OC)c3)sc2C)cc1 [Example 54, 3,4-dimethoxy-N-[4-(4-methoxy-phenyl)-5-methyl-thiazol-2-yl]-benzamide]
- melting point: 174 to 175 °C

SMILES: Cc1sc(NC(=O)c2ccc(O)c(O)c2)nc1-c1ccc(O)cc1 [Example 56, 3,4-dihydroxy-N-[4-(4-hydroxy-phenyl)-5-methyl-thiazol-2-yl]-benzamide]
- IC50 [1]: 75 µM
- inhibition at 250 µM [1]: 71.9%
- inhibition at 500 µM [2]: 58.7%

SMILES: COc1ccc(-c2nc(NC(=O)c3ccc(OC)c(OC)c3)sc2CCc2ccccc2)cc1 [Example 58, 3,4-dimethoxy-N-[4-(4-methoxy-phenyl)-5-phenylethyl-thiazol-2-yl]-benzamide]
- melting point: 74 to 75 °C

SMILES: COc1ccc(-c2nc(NC(=O)c3cc(OC)c(OC)c(OC)c3)sc2CCc2ccccc2)cc1 [Example 59, 3,4,5-trimethoxy-N-[4-(4-methoxy-phenyl)-5-phenylethyl-thiazol-2-yl]-benzamide]
- melting point: 78 to 79 °C

SMILES: CCCCc1sc(NC(=O)c2ccc(OC)c(OC)c2)nc1-c1ccc(OC)cc1 [Example 63, N-[5-n-butyl-4-(4-methoxy-phenyl)-thiazol-2-yl]-3,4-dimethoxy-benzamide]
- melting point: 150 to 151 °C

SMILES: CCCCc1sc(NC(=O)c2cc(OC)c(OC)c(OC)c2)nc1-c1ccc(OC)cc1 [Example 64, N-[5-n-butyl-4-(4-methoxy-phenyl)-thiazol-2-yl]-3,4,5-trimethoxy-benzamide]
- melting point: 197 to 198 °C

SMILES: COc1ccc(-c2nc(N(S(=O)(=O)c3ccc(C)cc3)S(=O)(=O)c3ccc(C)cc3)sc2Cc2ccccc2)cc1 [Example 67, N-[5-benzyl-4-(4-methoxy-phenyl)-thiazol-2-yl]-N-p-tolylsulfonyl-p-tolylsulfonamide]
- melting point: 182 to 183 °C

SMILES: COc1ccc(-c2nc(NC(=O)CCc3ccc(OC)c(OC)c3)sc2Cc2ccccc2)cc1 [Example 68, N-[5-benzyl-4-(4-methoxy-phenyl)-thiazol-2-yl]-3-(3,4-dimethoxy-phenyl)-propanamide]
- melting point: 142 to 143 °C

SMILES: COc1ccc(-c2nc(N(CCO)CCO)sc2Cc2ccccc2)cc1 [Example 73, 2-[[5-benzyl-4-(4-methoxy-phenyl)-thiazol-2-yl]-(2-hydroxy-ethyl)-amino]-ethanol]
- melting point: 119 to 120 °C

SMILES: Oc1ccc(-c2nc(N3CCNCC3)sc2Cc2ccccc2)cc1 [Example 75, 4-(5-benzyl-2-piperazin-4-yl-thiazol-4-yl)-phenol]
- melting point: 222 to 223 °C

SMILES: OCCN(CCO)c1nc(-c2ccc(O)cc2)c(Cc2ccccc2)s1 [Example 76, 4-(5-benzyl-2-[bis-(2-hydroxy-ethyl)-amino]-thiazol-4-yl)-phenol]
- melting point: 167 to 168 °C

SMILES: Oc1ccc(-c2nc(CCc3ccc(O)c(O)c3)sc2Cc2ccccc2)cc1 [Example 78, 4-{2-[5-benzyl-4-(4-hydroxy-phenyl)-thiazol-2-yl]-ethyl}-benzene-1,2-diol]
- melting point: 177 to 178 °C
